From paper PMC10634346 (Cancer Research Communications, 2023)

Columns and labels:
[1] = system: MCL1 mRNA in SU-DHL-10 tumors; assay: Pharmacodynamics in SU-DHL-10 xenograft tumors, MCL1 mRNA qPCR; assay type: in vivo, C.B-17 SCID mice; details: single dose; depletion sustained for 8 hours postdose at the two higher dose levels
Method: Total RNA was extracted from blood of patients and cell lines using RNeasy Plus Mini Kit (QIAGEN, #74136) and cDNA prepared with the Maxima First Strand cDNA Synthesis Kit for RT-PCR (Thermo Fisher Scientific, K1642) according to manufacturer's instructions. The integrity of purified total RNA was evaluated using an Agilent 2100 Bioanalyzer system and RNA 6000 Nano Kit (Agilent, #5067-1511). Differential gene expression analysis was performed (Fios Genomics) from RNA-seq data (Discovery Life Sciences). MYC and MCL1 mRNA levels were measured by qPCR in vitro and in vivo, using a Taqman qPCR system (Thermo Fisher Scientific), TaqMan Fast Universal PCR Master Mix (2X) no AmpErase (#4352042) and TaqMan probes for MYC (Hs00153408_m1) and MCL1 (Hs03043899_m1). RNA-seq data were analyzed using DESeq2 ([35]).
A total of 10 × 10^6 SU-DHL-10 cells were inoculated subcutaneously into 6–8 weeks old female C.B-17 SCID mice (Iffa Credo, Brussels). The mice were randomized to treatment groups at a tumor volume of 63–104 mm^3 and treated (intravenously, once weekly) with 10 mg/kg enitociclib (60% PEG400, 10% ethanol, water), 15 mg/kg enitociclib (30% PEG400, 10% ethanol, water), or corresponding vehicle treatments. Mice were around 10–12 weeks of age at the start of study. All animal experiments were performed under the national animal welfare laws of Germany and approved by the local authorities.

[2] = system: RNA polymerase II Ser2 phosphorylation (p-Ser2) in SU-DHL-4 cells; assay: In vitro washout, p-Ser2 Western blot, SU-DHL-4; assay type: cell-based, human; details: 4-hour treatment then washout
Method: Evaluation of the pharmacodynamic extent and duration of CDK9 inhibition were performed in vitro using the human DLBCL cell lines SU-DHL-4 and SU-DHL-10, harboring MYC amplification and MYC overexpression with P57T mutation, respectively. Cells were seeded 18 hours prior to treatment for 4 hours with one of three CDK9 inhibitors, enitociclib (0.25 and1 µmol/L), atuveciclib (1 µmol/L) or KB-0742 (1 µmol/L), cells were washed, and incubation continued until 48 hours posttreatment. Samples were collected before treatment (−4), immediately after treatment (0), and at 1, 2, 4, 8, 12, 16, 24, and 48 hours after washout for RNA sequencing (RNA-seq), qPCR, and Western blotting analyses.
(§1) The levels of p-Ser2, p-Ser5 and total RNA polymerase II, Myc, Mcl-1, cleaved PARP (cPARP), and cleaved Caspase 3 were assessed by Western blotting and quantified near-infrared detection and background corrected quantification of fluorescence intensity on an Odyssey Imaging System with IRDye secondary antibodies (LI-COR Biosciences). For quantification, the protein levels were normalized to GAPDH or HSP90, expressed as a ratio to DMSO or vehicle control at matched timepoints. The normalized relative protein levels of p-Ser2 were used for a treatment effect comparison by performing an ANOVA using PROC MIXED in SAS. The ANOVA model included treatment, timepoints and their interactions as fixed effects. The least square means (LSM), differences between the LSMs and associated P values were generated. The following primary antibodies were used: Rpb1 NTD (D8L4Y) rabbit antibody [Cell Signaling Technology (CST), #14958], anti-RNA polymerase II subunit B1 (phospho CTD Ser-2, clone 3E10) rat antibody (Merck, 04-1571-I), recombinant anti-c-MYC rabbit antibody (Y69; Abcam, #ab32072), MCL1 (D5V5L) rabbit antibody (CST, #39224), cleaved-PARP (Asp214) (E2T4K) mouse antibody (CST, #32563), HSP90 (C45G5) rabbit antibody (CST, #4877), and GAPDH mouse antibody (Zytomed Systems, #ZYT-RGM2-6C5).

[3] = system: cleaved PARP in SU-DHL-10 tumors; assay: Pharmacodynamics in SU-DHL-10 xenograft tumors, cleaved PARP; assay type: in vivo, C.B-17 SCID mice; details: single dose
Method: as §1, with “#ZYT-RGM2-6C5). […]” for “#ZYT-RGM2-6C5).”

## COc1cc(F)ccc1-c1cc(Nc2cc(CS(C)(=N)=O)ccn2)ncc1F (centres unmarked) [enitociclib]
[1]
  MCL1 mRNA levels in tumors (in words): reduced by 4 hours postdose
[2]; 0.25 µmol/L
  decrease of p-Ser2 levels: 50%
  duration of p-Ser2 decrease: up to 48 hours
[2]; 1 µmol/L
  duration of p-Ser2 decrease: 48 h
[3]
  cleaved PARP in tumors (in words): increase in cleaved PARP
